Test results from US11078207B2, “Substituted pyrrolo[2,3-d]pyrimidines as HER2 inhibitors” (TAIHO PHARMACEUTICAL CO., LTD., priority 2019, dated 2021).
pIC50: −log10 of the molar value. Read-outs that look alike come from different tables or passages of the source.

Experiments:
HER2 = target: T1, HER2 (Homo sapiens, UniProt P04626); assay: Inhibitory effect (in vitro) on HER2 phosphorylation activity; type: biochemical; details: recombinant human HER2, ATP 5 μM, 25° C. 30 minutes
T1 construct: purchased Carna Biosciences, Inc
T1 sequence (P04626 23-1255): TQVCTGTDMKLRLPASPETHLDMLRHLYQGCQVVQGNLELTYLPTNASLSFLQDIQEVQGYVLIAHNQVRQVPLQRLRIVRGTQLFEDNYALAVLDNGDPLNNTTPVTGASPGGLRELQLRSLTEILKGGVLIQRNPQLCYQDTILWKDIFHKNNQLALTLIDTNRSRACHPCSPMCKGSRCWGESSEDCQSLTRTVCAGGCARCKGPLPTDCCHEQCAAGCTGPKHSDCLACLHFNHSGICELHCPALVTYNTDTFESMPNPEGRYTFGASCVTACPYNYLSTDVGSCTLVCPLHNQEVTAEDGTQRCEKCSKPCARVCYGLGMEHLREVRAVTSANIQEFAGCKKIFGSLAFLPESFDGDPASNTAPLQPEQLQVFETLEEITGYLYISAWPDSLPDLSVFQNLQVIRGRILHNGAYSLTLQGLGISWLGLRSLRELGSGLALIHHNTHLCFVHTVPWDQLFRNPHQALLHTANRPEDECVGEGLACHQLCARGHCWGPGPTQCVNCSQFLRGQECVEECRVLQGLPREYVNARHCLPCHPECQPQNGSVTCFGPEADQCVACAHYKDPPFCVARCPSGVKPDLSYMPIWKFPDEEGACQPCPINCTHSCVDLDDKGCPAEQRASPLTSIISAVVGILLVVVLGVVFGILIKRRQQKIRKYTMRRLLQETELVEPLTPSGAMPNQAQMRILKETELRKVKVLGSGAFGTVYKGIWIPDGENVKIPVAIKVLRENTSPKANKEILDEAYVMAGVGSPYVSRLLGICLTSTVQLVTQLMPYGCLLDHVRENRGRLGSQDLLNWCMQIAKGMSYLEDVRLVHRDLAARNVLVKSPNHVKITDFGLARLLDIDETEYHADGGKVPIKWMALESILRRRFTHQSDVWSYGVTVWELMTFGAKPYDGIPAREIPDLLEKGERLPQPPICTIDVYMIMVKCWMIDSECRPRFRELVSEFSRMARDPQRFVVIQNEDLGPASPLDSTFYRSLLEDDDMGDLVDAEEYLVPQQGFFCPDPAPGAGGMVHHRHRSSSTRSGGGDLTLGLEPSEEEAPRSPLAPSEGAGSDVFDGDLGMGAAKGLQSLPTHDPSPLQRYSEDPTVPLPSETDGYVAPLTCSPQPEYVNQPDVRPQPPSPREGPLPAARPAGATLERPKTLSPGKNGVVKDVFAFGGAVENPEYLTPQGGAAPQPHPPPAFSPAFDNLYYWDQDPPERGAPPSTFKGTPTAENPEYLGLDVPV
From the text: In order to determine conditions for a method of measuring the in vitro inhibitory activity of a compound against HER2 phosphorylation activity, based on the report regarding a HER2 kinase reaction using, as a substrate, a peptide having the same sequence (5-FAM-[…]-CONH2) as that of ProfilerPro Peptide 22 of PerkinElmer (Xie H et al., PLoS One. 2011; 6(7): e21487), ProfilerPro Peptide 22 was used as a substrate. A purified recombinant human HER2 protein used in the present test was purchased from Carna Biosciences, Inc. Upon the measurement of the inhibitory activity of the compound, first, the compound of the present invention was diluted stepwise with dimethyl sulfoxide (DMSO). […] To the reaction solution, EDTA was added to a final concentration of 30 mM, so as to terminate the reaction. Finally, using LabChip (registered trademark) EZ Reader II (PerkinElmer), an unphosphorylated substrate peptide (S) and a phosphorylated peptide (P) were separated and detected according to microchannel capillary electrophoresis.

SK-BR-3 cells = assay: Growth inhibitory activity against HER2 expressing cell line SK-BR-3; type: cell-based; details: Homo sapiens, SK-BR-3, 72 h; 3 days, CellTiter-Glo 2.0
Description: SK-BR-3 cells as a HER2 overexpressing human breast cancer cell line were suspended in a McCoy's 5a medium (manufactured by Life Technologies) supplemented with 10% fetal bovine serum. The cell suspension was seeded in each well of a 384-well flat-bottom microplate, and was then cultured in a 5% carbon dioxide gas-containing culture vessel at 37° C. for 1 day. Thereafter, the compound of the present invention was dissolved in DMSO, and the compound was diluted to 500 times the final concentration in DMSO. The compound in the DMSO solution was diluted with DMSO solution or the medium used in the suspension of the cells, and the obtained solution was then added to each well of the culture plate so that the final concentration of DMSO was 0.2%. The obtained mixture was further cultured in the 5% carbon dioxide gas-containing culture vessel at 37° C. for 3 days. After completion of the culture for 3 days in the presence of the compound, the cells were counted using CellTiter-Glo 2.0 (manufactured by Promega), and the growth inhibition percentage was then calculated according to the following equation. […] Growth inhibitory percentage (%)=(C−T)/(C)×100 T: Emission intensity from the well to which the test compound was added C: Emission intensity from the well to which the test compound was not added

NCI-N87 cells = assay: Growth inhibitory activity against HER2 expressing cell line NCI-N87; type: cell-based; details: Homo sapiens, NCI-N87, 72 h; 3 days, CellTiter-Glo 2.0
Description: NCI-N87 cells as a HER2 overexpressing human stomach cancer cell line (American Type Culture Collection, Cat No. ATCC (registered trademark) CRL-5822) were suspended in an RPMI640 medium (Wako Pure Chemical Industries, Ltd.) supplemented with 10% fetal bovine serum. Subsequently, the cell suspension was seeded in each well of a 96-well flat-bottom microplate, and was then cultured in a 5% carbon dioxide gas-containing culture vessel at 37° C. for 1 day. Thereafter, the compound of the present invention was dissolved in DMSO, and the compound was diluted to 1000 times the final concentration in DMSO. The compound in the DMSO solution was diluted with the medium used in the suspension of the cells, and the obtained solution was then added to each well of the culture plate, so that the final concentration of DMSO became 0.1%. Regarding a control well, DMSO was diluted with the medium used in the suspension of the cells, and the obtained solution was then added to each well of the culture plate, so that the final concentration of DMSO became 0.1%. After addition of a drug solution, the obtained mixture was further cultured in the 5% carbon dioxide gas-containing culture vessel at 37° C. for 3 days. After completion of the culture for 3 days in the presence of the compound, the cells were counted using CellTiter-Glo 2.0 (manufactured by Promega) in accordance with the protocols recommended by Promega. The growth inhibition percentage was calculated according to the following equation. […] Growth inhibitory percentage (%)=(C−T)/(C)×100 T: Emission intensity from the well to which the test compound was added C: Emission intensity from the well to which the test compound was not added

[1] = Evaluation of oral absorbability; type: in vivo, BALB/cA mice; details: mouse; plasma, oral 50 mg/kg/day, BALB/cA mice
Description: The compound of the present invention was suspended or dissolved in 0.5% HPMC aqueous solution and 0.1 N hydrochloric acid, and the obtained suspension or solution was orally administered to BALB/cA mice (CLEA Japan, Inc.) at a dose of 50 mg/kg/day. At 0.5, 1, 2, 4 and 6 hours after completion of the oral administration, blood was collected from the facial vein over time, so as to obtain plasma. The concentration of the compound in the obtained plasma was measured by LC-MS/MS, and the oral absorbability of the present compound was evaluated.

[2] = Evaluation of brain penetration properties; type: in vivo, BALB/cA mice; details: mouse, 0.5 hours after oral 50 mg/kg/day, BALB/cA mice; for Kp at 0.5 h: read-out: Kp value (Compound concentration in brain/plasma)
Ba/F3-HER2insYVMA cells = Ba/F3-HER2insYVMA cells (Homo sapiens, UniProt P04626, DUP772-775, cells depend on it); assay: Growth inhibitory activity against HER2 exon 20 insertion mutant expressing cell line; type: cell-based, mouse; details: 3 days, CellTiter-Glo 2.0, read-out: HER2ex20insYVMA cell growth inhibitory activity IC50 value
Sequence of Ba/F3-HER2insYVMA cells (P04626 with tags, fused parts or gaps DUP772-775): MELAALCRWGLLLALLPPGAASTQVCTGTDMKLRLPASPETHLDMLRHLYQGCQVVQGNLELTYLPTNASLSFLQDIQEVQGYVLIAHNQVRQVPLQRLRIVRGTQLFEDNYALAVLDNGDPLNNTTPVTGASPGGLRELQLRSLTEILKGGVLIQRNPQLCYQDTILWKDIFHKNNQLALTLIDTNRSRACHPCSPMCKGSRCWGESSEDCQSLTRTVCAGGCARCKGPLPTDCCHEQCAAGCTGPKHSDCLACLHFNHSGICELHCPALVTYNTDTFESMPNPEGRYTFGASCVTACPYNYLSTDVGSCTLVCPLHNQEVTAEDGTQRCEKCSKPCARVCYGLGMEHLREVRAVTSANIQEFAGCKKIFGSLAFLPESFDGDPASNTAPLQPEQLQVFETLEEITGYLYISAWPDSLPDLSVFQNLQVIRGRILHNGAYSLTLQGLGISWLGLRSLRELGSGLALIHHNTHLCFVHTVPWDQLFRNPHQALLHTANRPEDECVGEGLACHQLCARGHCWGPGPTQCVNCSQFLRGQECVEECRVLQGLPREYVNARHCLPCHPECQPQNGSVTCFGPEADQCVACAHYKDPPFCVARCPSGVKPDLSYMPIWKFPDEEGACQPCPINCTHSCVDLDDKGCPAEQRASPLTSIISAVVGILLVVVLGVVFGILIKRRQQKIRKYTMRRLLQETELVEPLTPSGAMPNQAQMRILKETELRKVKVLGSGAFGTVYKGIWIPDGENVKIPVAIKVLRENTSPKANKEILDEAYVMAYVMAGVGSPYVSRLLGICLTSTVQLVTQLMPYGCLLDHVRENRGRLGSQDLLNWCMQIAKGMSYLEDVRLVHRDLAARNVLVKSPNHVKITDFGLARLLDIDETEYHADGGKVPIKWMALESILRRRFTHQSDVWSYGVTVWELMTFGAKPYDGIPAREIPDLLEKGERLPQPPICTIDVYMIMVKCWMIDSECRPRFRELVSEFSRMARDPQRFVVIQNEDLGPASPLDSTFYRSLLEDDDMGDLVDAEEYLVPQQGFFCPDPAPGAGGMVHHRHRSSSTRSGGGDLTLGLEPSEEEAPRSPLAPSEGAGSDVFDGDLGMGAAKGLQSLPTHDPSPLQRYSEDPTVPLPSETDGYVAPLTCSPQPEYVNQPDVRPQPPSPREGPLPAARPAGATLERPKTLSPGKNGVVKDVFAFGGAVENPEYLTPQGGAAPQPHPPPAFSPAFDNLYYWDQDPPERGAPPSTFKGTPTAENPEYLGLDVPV
Description: Growth inhibitory activity against the HER2 exon 20 insertion mutant was measured using Ba/F3 cells that were a mouse B lymphocyte precursor cell line, into which a human HER2 exon 20 insertion mutant gene had been introduced. The Ba/F3 cells were maintained in an RPMI-1640 medium (Thermo Fisher Scientific) supplemented with 10% fetal bovine serum (FBS), 100 U/mL penicillin, 100 μg/mL streptomycin (Thermo Fisher Scientific) and 1 ng/mL mouse interleukin-3 (mIL-3) (CST).
Upon evaluation of cell growth inhibitory activity, the Ba/F3-HER2insYVMA cells were suspended in an RPMI-1640 medium supplemented with 10% FBS, 100 U/mL penicillin, and 100 μg/mL streptomycin. The cell suspension was seeded in each well of a 96-well flat-bottom microplate, and was then cultured in a 5% carbon dioxide gas-containing culture vessel at 37° C. for 1 day. The compound of the present invention was dissolved in DMSO, and was then diluted with DMSO or the medium used in the suspension of the cells. The obtained solution was then added to each well of the culture plate, so that the final concentration of DMSO became 0.2%. The obtained mixture was further cultured in the 5% carbon dioxide gas-containing culture vessel at 37° C. for 3 days. After completion of the culture for 3 days in the presence of the compound, the cells were counted using CellTiter-Glo 2.0 (manufactured by Promega), and the growth inhibition percentage was then calculated according to the following equation. […] Growth inhibitory percentage (%)=(C−T)/(C)×100 T: Emission intensity from the well to which the test compound was added C: Emission intensity from the well to which the test compound was not added

[3] = brain, read-out: Compound concentration in brain
[4] = plasma, read-out: Compound concentration in plasma

pIC50 (HER2)	pIC50 (SK-BR-3 cells)	AUC(0-t) [1] [µM·h]	concentration at 0.5 h [2, 3] [µM]	Kp at 0.5 h ([2]; brain)	concentration at 0.5 h [2, 4] [µM]	GI50 (Ba/F3-HER2insYVMA cells) [nM]	Structure (SMILES)	pIC50 (NCI-N87 cells)
8.57	8.03	50	1.4	0.15	9.1	17	C=CC(=O)N1C[C@H](n2c(C#CC)c(C(=O)N[C@H](C)c3cc(F)cc(F)c3)c3c(N)ncnc32)C[C@@H]1C [Example 1, 7-(R)-((3R,5S)-1-acryloyl-5-methylpyrrolidin-3-yl)-4-amino-N—((R)-1-(3,5-difluorophenyl)ethyl)-6-(prop-1-yn-1-yl)-7H-pyrrolo[2,3-d]pyrimidine-5-carboxamide]	7.97
8.60	8.55	15	1.8	0.27	6.6	12	C=CC(=O)N1C[C@H](n2c(C#CC)c(C(=O)N[C@H](C)c3ccccc3)c3c(N)ncnc32)C[C@@H]1C [Example 2, 7-((3R,5S)-1-acryloyl-5-methylpyrrolidin-3-yl)-4-amino-N—((R)-1-phenylethyl)-6-(prop-1-yn-1-yl)-7H-pyrrolo[2,3-d]pyrimidine-5-carboxamide]	8.52
8.24	8.35	24	1.4	0.13	11	25	C=CC(=O)N1C[C@H](n2c(C#CC)c(C(=O)NC(C)(C)c3ccccc3)c3c(N)ncnc32)C[C@@H]1C [Example 3, 7-((3R,5S)-1-acryloyl-5-methylpyrrolidin-3-yl)-4-amino-N-(2-phenylpropan-2-yl)-6-(prop-1-yn-1-yl)-7H-pyrrolo[2,3-d]pyrimidine-5-carboxamide]	8.33
8.41	8.25	12	2.8	0.34	8.3	20	C=CC(=O)N1C[C@H](n2c(C#CC)c(C(=O)N[C@H](CC)c3ccccc3)c3c(N)ncnc32)C[C@@H]1C [Example 4, 7-((3R,5S)-1-acryloyl-5-methylpyrrolidin-3-yl)-4-amino-N—((R)-1-phenylpropyl)-6-(prop-1-yn-1-yl)-7H-pyrrolo[2,3-d]pyrimidine-5-carboxamide]	8.25
8.11	8.40	20	2.2	0.15	15	14	C=CC(=O)N1C[C@H](n2c(C#CC)c(C(=O)NC(C)(C)c3ccccc3F)c3c(N)ncnc32)C[C@@H]1C [Example 5, 7-((3R,5S)-1-acryloyl-5-methylpyrrolidin-3-yl)-4-amino-N-(2-(2-fluorophenyl)propan-2-yl)-6-(prop-1-yn-1-yl)-7H-pyrrolo[2,3-d]pyrimidine-5-carboxamide]	8.15
8.55	8.00	17	1.3	0.17	7.5	28	C=CC(=O)N1C[C@H](n2c(C#CC)c(C(=O)N[C@H](C)c3cccc(Cl)c3)c3c(N)ncnc32)C[C@@H]1C [Example 6, 7-((3R,5S)-1-acryloyl-5-methylpyrrolidin-3-yl)-4-amino-N—((R)-1-(3-chlorophenyl)ethyl)-6-(prop-1-yn-1-yl)-7H-pyrrolo[2,3-d]pyrimidine-5-carboxamide]	8.07
8.00	7.85	15	3.3	0.33	9.9	26	C=CC(=O)N1C[C@H](n2c(C#CC)c(C(=O)N[C@@H](c3ccccc3)C(F)(F)F)c3c(N)ncnc32)C[C@@H]1C [Example 8, 7-((3R,5S)-1-acryloyl-5-methylpyrrolidin-3-yl)-4-amino-6-(prop-1-yn-1-yl)-N—((S)-2,2,2-trifluoro-1-phenylethyl)-7H-pyrrolo[2,3-d]pyrimidine-5-carboxamide]	8.01
8.25	8.38	51	2.4	0.18	13	24	C=CC(=O)N1C[C@H](n2c(C#CC3CC3)c(C(=O)NC(C)(C)c3ccccc3)c3c(N)ncnc32)C[C@@H]1C [Example 9, 7-((3R,5S)-1-acryloyl-5-methylpyrrolidin-3-yl)-4-amino-6-(cyclopropylethynyl)-N-(2-phenylpropan-2-yl)-7H-pyrrolo[2,3-d]pyrimidine-5-carboxamide]	8.21
8.66	7.89	50	2.4	0.18	13	29	C=CC(=O)N1C[C@H](n2c(C#CC3CC3)c(C(=O)N[C@H](C)c3cccc(F)c3F)c3c(N)ncnc32)C[C@@H]1C [Example 10, 7-((3R,5S)-1-acryloyl-5-methylpyrrolidin-3-yl)-4-amino-6-(cyclopropylethynyl)-N—((R)-1-(2,3-difluorophenyl)ethyl)-7H-pyrrolo[2,3-d]pyrimidine-5-carboxamide]	7.98
